Measurements reported in patent US8883782B2, “Spiro-tetracyclic ring compounds as beta-secretase modulators and methods of use” (Amgen Inc., priority 2010, dated 2014).
Read-outs that look alike come from different tables or passages of the source.

What was measured:
[1] = test system: Aβ40 in conditioned medium of cells stably expressing Amyloid Precursor Protein (APP); assay: In vitro BACE cell-based assay (Aβ40 in conditioned medium, sandwich ELISA); conditions: read-out: HEK cell assay
In short: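 Step two: 10-point compound titration added, starting 100 μM or 10 μM, 0.1% DMSO. Step three: medium Aβ40 measured by ELISA, capture 3 h and detection 2 h at 4° C, TRF read.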

[2] = test system: Abeta 40 in cerebrospinal fluid (CSF) and brain; assay: In vivo inhibition of beta-secretase (Abeta 40 reduction in CSF and brain); conditions: rat, after 4 hrs; for inhibition in vivo at 3 mg/kg: Abeta 40, 3 mpk; for inhibition in vivo at 10 mg/kg: Abeta 40, 10 mg/kg (10 mpk)
Description: In Vivo Inhibition of Beta-Secretase
Several animal models, including mouse, rat, dog, and monkey, may be used to screen for inhibition of beta-secretase activity in vivo following administration of a test compound sample. Animals used in this invention can be wild type, transgenic, or gene knockout animals. […] A separate group of animals receive 2% hydroxypropyl methylcellulose, 1% Tween80 alone, containing no test compound, and serve as a vehicle-control group. At the end of the test period, animals are sacrificed and brain tissues, plasma or cerebrospinal fluid are collected. […] Homogenates are centrifuged at 355,000 g, 4° C. for 30 minutes. CSF or brain supernatants are then analyzed for the presence of A-beta peptide by specific sandwich ELISA assays based on ECL (Electrochemiluminescence) technology. For example, rat Abeta40 is measured using biotinylated-4G8 (Signet) as a capture antibody and Fab40 (an in-house antibody specific to the C-terminal of Abeta40) as a detection antibody.
Actual vehicles used: Oral: 2% HPMC, 1% Tween80, pH 2.2

[3] = target: Beta Secretase enzyme (BACE) (Homo sapiens, UniProt P56817); assay: In vitro enzymatic BACE FRET (fluorescence resonance energy transfer) assay; format: biochemical; conditions: average IC50, enzyme assay; read-out: BACE 1 FRET assay
Beta Secretase enzyme (BACE), sequence (P56817 46-501, species assumed): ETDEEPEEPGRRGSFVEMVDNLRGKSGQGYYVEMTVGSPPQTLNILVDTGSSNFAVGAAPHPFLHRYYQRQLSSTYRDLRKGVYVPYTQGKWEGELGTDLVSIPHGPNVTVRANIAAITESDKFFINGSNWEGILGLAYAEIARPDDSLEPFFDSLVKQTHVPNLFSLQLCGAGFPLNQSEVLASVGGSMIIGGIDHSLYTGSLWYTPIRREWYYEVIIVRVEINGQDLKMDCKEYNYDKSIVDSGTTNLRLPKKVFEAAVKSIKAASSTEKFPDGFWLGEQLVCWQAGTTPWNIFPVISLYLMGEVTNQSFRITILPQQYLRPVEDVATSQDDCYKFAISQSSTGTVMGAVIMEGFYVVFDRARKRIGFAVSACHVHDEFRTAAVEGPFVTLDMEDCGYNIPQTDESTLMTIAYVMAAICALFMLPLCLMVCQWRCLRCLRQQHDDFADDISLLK
In short: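 Enzyme activity was measured at pH 4.2 (0.05 M acetate, 10% DMSO final, 100 uM genapol) by cleavage of a 50 nM quenched fluorogenic peptide. After one hour, Tris was added to neutralise the pH and fluorescence was recorded.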

[4] = Homo sapiens, HEK293, average IC50, HEK cells
[5] = Homo sapiens, HEK293, average IC50

| Compound | IC50 [1, 4] [nM] | IC50 [1, 5] [nM] | IC50 [3] [nM] | other results |
| --- | --- | --- | --- | --- |
| NC1=N[C@@]2(CO1)c1cc(-c3cccnc3F)ccc1Oc1c2cc(C2=CCCOC2)nc1F [Example 688, (5S)-3-(5,6-dihydro-2H-pyran-3-yl)-1-fluoro-7-(2-fluoro-3-pyridinyl)spiro[chromeno[2,3-c]pyridine-5,4′-[1,3]oxazol]-2′-amine] | 5 |  |  | inhibition in vivo at 3 mg/kg ([2]; CSF, read-out: CSF A-beta reduction % at 3 mpk): 74%; inhibition in vivo at 3 mg/kg ([2]; brain, read-out: Brain A-beta reduction % at 3 mpk): 75% |
| NC1=N[C@@]2(CS1)c1cc(-c3cccnc3F)ccc1Oc1cnc(-c3ccnc(F)c3)cc12 [Example 1000, (S)-7-(2-fluoropyridin-3-yl)-3-(2-fluoropyridin-4-yl)-5′H-spiro[chromeno[2,3-c]pyridine-5,4′-thiazol]-2′-amine] |  | 23 |  | CSF A-beta reduction % at 30 mpk ([2]; CSF, Abeta 40, 30 mpk): 63% at 30 mpk; Brain A-beta reduction % at 30 mpk ([2]; brain, Abeta 40, 30 mpk): 60% at 30 mpk |
| CC(C)(C)C#Cc1cnc2c(c1)[C@]1(COC(N)=N1)c1cc(-c3cncnc3)c(F)cc1O2 [Example 339, (S)-3-(3,3-dimethylbut-1-yn-1-yl)-8-fluoro-7-(pyrimidin-5-yl)-5′H-spiro[chromeno[2,3-b]pyridine-5,4′-oxazol]-2′-amine] |  |  |  | IC50 ([1]; average IC50): 14.4 nM; inhibition in vivo at 10 mg/kg ([2]; CSF, read-out: CSF A-beta reduction % at 10 mg/kg): 56%; inhibition in vivo at 10 mg/kg ([2]; brain, read-out: Brain A-beta reduction % at 10 mg/kg): 29% |
| NC1=N[C@@]2(CS1)c1cc(-c3ccc(F)nc3)ccc1Oc1ncc(C3=CCOCC3)cc12 [Example 966, (5S)-3-(3,6-dihydro-2H-pyran-4-yl)-7-(6-fluoro-3-pyridinyl)spiro[chromeno[2,3-b]pyridine-5,4′-[1,3]thiazol]-2′-amine] | 32 |  | 2.2 |  |
| COc1cc(F)c2c(c1)[C@]1(COC(N)=N1)c1cc(-c3cncc(C#CCO)c3)ccc1O2 [Example 820, 3-(5-((4S)-2-amino-5′-fluoro-7′-methoxyspiro[1,3-oxazole-4,9′-xanthen]-2′-yl)-3-pyridinyl)-2-propyn-1-ol] |  | 21 | 1.1 |  |
| NC1=N[C@]2(CS1)c1cc(-c3cccnc3)ccc1Oc1ncc(C3=CCOCC3)cc12 [Example 585, (5R)-3-(3,6-dihydro-2H-pyran-4-yl)-7-(3-pyridinyl)spiro[chromeno[2,3-b]pyridine-5,4′-[1,3]thiazol]-2′-amine] | 18.1 |  | 2.5 |  |
| NC1=N[C@@]2(CO1)c1cc(-c3cncnc3)ccc1Oc1cnc(-c3ccnc(F)c3)cc12 [Example 539, (5S)-3-(2-fluoro-4-pyridinyl)-7-(5-pyrimidinyl)spiro[chromeno[2,3-c]pyridine-5,4′-[1,3]oxazol]-2′-amine] | 38.2 |  | 1.7 |  |
| C=CCN(C)c1cc(F)c2c(c1)[C@]1(COC(N)=N1)c1cc(-c3cccnc3F)ccc1O2 [Example 853, (4S)-4′-fluoro-7′-(2-fluoro-3-pyridinyl)-N~2~′-methyl-N~2~′-2-propen-1-ylspiro[1,3-oxazole-4,9′-xanthene]-2,2′-diamine] | 85 |  | 4 |  |
| NC1=N[C@@]2(CS1)c1cc(-c3cccnc3)ccc1Oc1ncc(N3CCOCC3)cc12 [Example 602, (5S)-3-(4-morpholinyl)-7-(3-pyridinyl)spiro[chromeno[2,3-b]pyridine-5,4′-[1,3]thiazol]-2′-amine] | 17 |  | 2.8 |  |
| CC#Cc1cncc(-c2ccc3c(c2)[C@@]2(COC(N)=N2)c2cc(-c4ccncc4)nc(OC)c2O3)c1 [Example 837, (5S)-1-methoxy-7-(5-(1-propyn-1-yl)-3-pyridinyl)-3-(4-pyridinyl)spiro[chromeno[2,3-c]pyridine-5,4′-[1,3]oxazol]-2′-amine] |  | 9 | 0.7 |  |
| NC1=N[C@]2(CS1)c1cc(-c3cccnc3F)ccc1Oc1cnc(C3=CCOCC3)cc12 [Example 613, (5R)-3-(3,6-dihydro-2H-pyran-4-yl)-7-(2-fluoro-3-pyridinyl)spiro[chromeno[2,3-c]pyridine-5,4′-[1,3]thiazol]-2′-amine] | 2560 |  | 227 |  |
| NC1=N[C@@]2(CO1)c1cc(-c3c(F)ccnc3F)ccc1Oc1cnc([C@H]3CCCCO3)cc12 [Example 617, (5S)-7-(2,4-difluoro-3-pyridinyl)-3-((2R)-tetrahydro-2H-pyran-2-yl)spiro[chromeno[2,3-c]pyridine-5,4′-[1,3]oxazol]-2′-amine] |  |  | 5.2 | IC50 ([1]; average IC50, HEK cells): 42 nM |
| NC1=N[C@@]2(CO1)c1cc(-c3cncc(F)c3)ccc1Oc1cnc(-c3ccnc(F)c3)cc12 [Example 376, (5S)-3-(2-fluoro-4-pyridinyl)-7-(5-fluoro-3-pyridinyl)spiro[chromeno[2,3-c]pyridine-5,4′-[1,3]oxazol]-2′-amine] |  | 33 | 2.6 |  |
| NC1=N[C@]2(CS1)c1cc(-c3cccnc3F)ccc1Oc1cnc(-c3ccnc(F)c3)cc12 [Example 992, (5R)-7-(2-fluoro-3-pyridinyl)-3-(2-fluoro-4-pyridinyl)spiro[chromeno[2,3-c]pyridine-5,4′-[1,3]thiazol]-2′-amine] |  | 1830 | 42.5 |  |
| CC1(C#Cc2cc3c(c(F)n2)Oc2ccc(-c4cccnc4F)cc2[C@@]32COC(N)=N2)COC1 [Example 738, (5S)-1-fluoro-7-(2-fluoro-3-pyridinyl)-3-((3-methyl-3-oxetanyl)ethynyl)spiro[chromeno[2,3-c]pyridine-5,4′-[1,3]oxazol]-2′-amine] |  | 10 | 0.6 |  |
| NC1=N[C@]2(CO1)c1cc(-c3cccnc3F)c(F)cc1Oc1c(F)cc(C3CCOCC3)cc12 [Example 871, (4R)-3′,5′-difluoro-2′-(2-fluoro-3-pyridinyl)-7′-(tetrahydro-2H-pyran-4-yl)spiro[1,3-oxazole-4,9′-xanthen]-2-amine] | 6470 |  | 179 |  |
| Cc1ccn(-c2cnc3c(c2)[C@]2(COC(N)=N2)c2cc(-c4cccnc4)ccc2O3)n1 [Example 1022, (5S)-3-(3-methyl-1H-pyrazol-1-yl)-7-(3-pyridinyl)spiro[chromeno[2,3-b]pyridine-5,4′-[1,3]oxazol]-2′-amine] |  | 106 | 7.2 |  |
| CC(C)(O)C#Cc1cncc(-c2ccc3c(c2)[C@@]2(COC(N)=N2)c2cc(C4=CCCOC4)ncc2O3)c1 [Example 819, 4-(5-((5S)-2′-amino-3-(5,6-dihydro-2H-pyran-3-yl)spiro[chromeno[2,3-c]pyridine-5,4′-[1,3]oxazol]-7-yl)-3-pyridinyl)-2-methyl-3-butyn-2-ol] |  | 238 | 5.2 |  |
| N#Cc1cccc(-c2ccc3c(c2)[C@@]2(COC(N)=N2)c2cc(C4=CCOCC4)ncc2O3)c1 [Example 143, 3-((5S)-2′-amino-3-(3,6-dihydro-2H-pyran-4-yl)spiro[chromeno[2,3-c]pyridine-5,4′-[1,3]oxazol]-7-yl)benzonitrile] |  | 9.4 | 1.1 |  |
| NC1=N[C@@]2(CO1)c1cc(-c3cccnc3)c(F)cc1Oc1c(F)cc(C3CCOCC3)cc12 [Example 864, (4S)-3′,5′-difluoro-2′-(3-pyridinyl)-7′-(tetrahydro-2H-pyran-4-yl)spiro[1,3-oxazole-4,9′-xanthen]-2-amine] | 30 |  | 1.1 |  |
| Cc1nc(F)ccc1-c1ccc2c(c1)[C@@]1(COC(N)=N1)c1cc(C3=CCOCC3)ncc1O2 [Example 251, (5S)-3-(3,6-dihydro-2H-pyran-4-yl)-7-(6-fluoro-2-methyl-3-pyridinyl)spiro[chromeno[2,3-c]pyridine-5,4′-[1,3]oxazol]-2′-amine] |  | 271 | 26.8 |  |
| NC1=N[C@@]2(CO1)c1cc(-c3cncc(F)c3)ccc1Oc1c(F)cc([C@H]3CCCOC3)cc12 [Example 285, (4S)-4′-fluoro-7′-(5-fluoro-3-pyridinyl)-2′-((3R)-tetrahydro-2H-pyran-3-yl)spiro[1,3-oxazole-4,9′-xanthen]-2-amine] |  | 20.4 | 2.4 |  |
| NC1=N[C@@]2(CO1)c1cc(-c3cnccn3)ccc1Oc1c(F)cc(N3CCOCC3)cc12 [Example 269, (4S)-4′-fluoro-2′-(4-morpholinyl)-7′-(2-pyrazinyl)spiro[1,3-oxazole-4,9′-xanthen]-2-amine] |  | 18.8 | 5.2 |  |
| Cc1ccn(-c2cc(F)c3c(c2)[C@]2(COC(N)=N2)c2cc(-c4cncnc4)ccc2O3)n1 [Example 635, (4S)-4′-fluoro-2′-(3-methyl-1H-pyrazol-1-yl)-7′-(5-pyrimidinyl)spiro[1,3-oxazole-4,9′-xanthen]-2-amine] | 23 |  | 2.4 |  |
| (4S)-2′-(2-chloro-4-pyrimidinyl)-4′-fluoro-7′-(2-fluoro-3-pyridinyl)spiro[1,3-oxazole-4,9′-xanthen]-2-amine [Example 221] |  |  | 0.7 | IC50 ([1]; average IC50): 129 nM |
